Results reported in patent US7452862B2, “Conformationally-controlled biologically active macrocyclic small molecules as motilin antagonists or ghrelin agonists” (Tranzyme Pharma, Inc., priority 2003, dated 2008).

How the values were obtained:
[1] = target: T1, human motilin receptor (Homo sapiens, UniProt O43193); test: Competitive radioligand binding assay (motilin receptor), Method B1; conditions: read-out: Binding Affinity [Ki (μM)]
T1 construct: purchased PerkinElmer 6110544; host or cells: CHO cells, stably transfected
T1 sequence (O43193 whole entry): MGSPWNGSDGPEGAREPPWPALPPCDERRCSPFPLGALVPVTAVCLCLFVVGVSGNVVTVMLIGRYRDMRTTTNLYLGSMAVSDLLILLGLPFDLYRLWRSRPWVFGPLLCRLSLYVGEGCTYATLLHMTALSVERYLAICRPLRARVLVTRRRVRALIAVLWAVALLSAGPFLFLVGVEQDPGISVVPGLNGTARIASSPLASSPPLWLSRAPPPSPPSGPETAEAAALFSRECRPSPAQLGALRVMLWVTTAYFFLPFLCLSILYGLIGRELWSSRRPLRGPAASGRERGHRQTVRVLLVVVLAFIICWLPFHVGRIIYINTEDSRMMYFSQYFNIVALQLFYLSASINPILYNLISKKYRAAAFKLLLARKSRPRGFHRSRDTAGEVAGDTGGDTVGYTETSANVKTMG
Protocol: (§1) The compounds of the present invention were evaluated for their ability to interact at the human motilin receptor and the human ghrelin receptor utilizing competitive redioligand binding assays as described in Method B1 and B2, respectively. Further characterization of the interaction can be performed utilizing the functional assays described in Methods B3 and B4 for the motilin and ghrelin receptors, respectively. All of these methods can be conducted, if so desired, in a high throughput manner to permit the simultaneous evaluation of many compounds.
Competitive Radioligand Binding Assay (Motilin Receptor)
• Membranes were prepared from CHO cells stably transfected with the human motilin receptor and utilized at a quantity of 1.5 μg/assay point. [PerkinElmer™ SignalScreen® Product #6110544, PerkinElmer, Inc. Wellesley, MA] • [^125I]-Motilin (PerkinElmer, #NEX-378); final concentration: 0.04-0.06 nM • Motilin (Bachem™, #H-4385, Bachem Bioscience Inc., King of Prussia, PA.); final concentration: 1 μM • Multiscreen® Harvest plates-GF/B (Millipore™, #MAHFB1H60, Billerica, MA) • Deep-well polypropylene titer plate (Beckman Coulter™,#267006, Fullerton, CA) • TopSeal-A™ (PerkinElmer, #6005185, Wellesley, MA) • Bottom seal (Millipore, #MATAH0P00) • MicroScint-0™(PerkinElmer,#6013611, Wellesley, MA) • Binding Buffer: 50 mM Tris-HCl (pH 7.4), 10 mM MgCl2, 1 mM EDTA, 0.1% BSA Assay Volumes: • 150 μL of membranes diluted in binding buffer • 10 μL of compound diluted in binding buffer • 10 μL of radioligand ([^125I]-Motilin) diluted in binding buffer Final Test Concentrations (N=11) for Compounds: • 10, 5, 2, 1, 0.5, 0.2, 0.1, 0.05, 0.02, 0.01, 0.005 μM. Compound Handling:
(§2) Compounds were provided frozen on dry ice at a stock concentration of 10 mM diluted in 100% DMSO and stored at −20° C. until the day of testing. On the test day, compounds were allowed to thaw at room temperature and than diluted in assay buffer according to the desired test concentrations. Under these conditions, the maximum final DMSO concentration in the assay was 0.5%.
In deep-well plates, diluted cell membranes (1.5 μg/mL) are combined with 10 μL of either binding buffer (total binding, N=5), 1 μM motilin (non-specific binding, N=3) or the appropriate concentration of test compound. The reaction is initiated by addition of 10 μl of [^125I]-motilin (final conc. 0.04-0.06 nM) to each well. Plates are sealed with TopSeal-A™, vortexed gently and incubated at room temperature for 2 hours. The reaction is arrested by filtering samples through pre-soaked (0.3% polyethyleneimine, 2 h) Multiscreen®Harvest plates using a Tomtec® Harvester (Tomtec, Hamden, CT), washed 9 times with 500 μL of cold 50 mM Tris-HCI (pH 7.4), and than plates are air-dried in a fumehood for 30 minutes. A bottom seal is applied to the plates prior to the addition of 25 μL of MicroScint-0 ® to each well. Plates are then sealed with TopSeal-A™ and counted for 30 sec per well on a TopCount® Microplate Scintillation and Luminescence Counter (PerkinElmer, Wellesley, MA) where results are expressed as counts per minute (cpm).
Data are analyzed by GrapbPad™ Prism® (GraphPad Software, San Diego, CA) using a variable slope non-linear regression analysis.
[formula] where total and non-specific binding represent the cpm obtained in the absence or presence of 1 μM motilin, respectively.

[2] = target: T2, human ghrelin receptor (hGHS-R1a) (Homo sapiens, UniProt Q92847); test: Competitive radioligand binding assay (ghrelin receptor), Method B2; conditions: read-out: Binding Affinity [Ki (μM)]
T2 construct: purchased PerkinElmer BioSignal RBHGHSM, lot#1887; host or cells: HEK-293 cells, stably transfected
T2 sequence (Q92847 whole entry): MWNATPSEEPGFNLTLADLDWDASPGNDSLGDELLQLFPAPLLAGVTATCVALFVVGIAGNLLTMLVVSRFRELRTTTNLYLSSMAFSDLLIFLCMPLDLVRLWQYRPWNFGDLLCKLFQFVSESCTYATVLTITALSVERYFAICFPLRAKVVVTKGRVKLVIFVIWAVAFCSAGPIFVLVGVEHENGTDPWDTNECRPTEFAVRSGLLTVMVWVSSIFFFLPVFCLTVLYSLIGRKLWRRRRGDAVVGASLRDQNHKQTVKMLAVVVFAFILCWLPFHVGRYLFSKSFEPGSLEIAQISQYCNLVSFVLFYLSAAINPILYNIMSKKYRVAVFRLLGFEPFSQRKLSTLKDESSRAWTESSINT
Protocol: as §1
Competitive Radioligand Binding Assay (Ghrelin Receptor)
The competitive binding assay at the human growth hormone secretagogue receptor (hGHS-R1a) was carried out analogously to assays described in the literature. (Bednarek M A et al. (2000), Structure-function studies on the new growth hormone-releasing peptide ghrelin: minimal sequence of ghrelin necessary for activation of growth hormone secretagogue receptor 1 a; J Med Chem 43:43704376. Palucki B L et al. (2001), Spiro(indoline-3,4′-piperidine) growth hormone secretagogues as ghrelin mimetics; Bioorg Med Chem Lett 11:1955-1957.)
• Membranes (GHS-R/HEK 293) were prepared from HEK-293 cells stably transfected with the human ghrelin receptor (hGHS-Rla). These membranes were provided by PerkinElmer BioSignal® (#RBHGHSM, lot#1887, PerkinlElmer, Wellesley, MA) and utilized at a quantity of 0.71 μg/assay point. • [^125I]-Ghrelin (PerkinElmer, #NEX-388); final concentration: 0.0070-0.0085 nM • Ghrelin(Bachem, #H-4864, Bachem Bioscience Inc., King of Prussia, PA); final concentration: 1 μM • Multiscreen® Harvest plates-GF/C (Millipore, #MAHFC1H60, Billerica, MA) • Deep-well polypropylene titer plate (Beckman Coulter, #267006, Fullerton, CA) • TopSeal-A™ (PerkinElmer, #6005185, Wellesley, MA) • Bottom seal (Millipore, #MATAH0P00) • MicroScint-0™ (PerkinElmer, #6013611, Wellesley, MA) • Binding Buffer: 25 mM Hepes (pH 7.4), 1 mM CaCl2, 5 mM MgCl2, 2.5 mM EDTA, 0.4% BSA Assay Volumes
Competition experiments were performed in a 300 μL filtration assay format. • 220 μL of membranes diluted in binding buffer • 40 μL of compound diluted in binding buffer • 40 μL of radioligand ([^125I]-Ghrelin) diluted in binding buffer
Final test concentrations (N=1) for compounds of the present invention: • 10, 1, 0.5, 0.2, 0.1, 0.05, 0.02, 0.01, 0.005, 0.002, 0.001 μM. Compound Handling
as §2, with “−80°” for “−20°”, “rt overnight” for “room temperature”, “then” for “than”, “maximal” for “maximum”, “0.1%.” for “0.5%.”
In deep-well plates, 220 μL of diluted cell membranes (final concentration: 0.71 μg/well) were combined with 40 μL of either binding buffer (total binding, N =5), 1 μM ghrelin (non-specific binding, N =3) or the appropriate concentration of test compound (N =2 for each test concentration). The reaction was initiated by addition of 40 μL of [^125I]-ghrelin (final conc. 0.0070-0.0085 nM) to each well. Plates were sealed with TopSeal-A™, vortexed gently and incubated at rt for 30 min. The reaction was arrested by filtering samples through Multiscreen® Harvest plates (pre-soaked in 0.5% polyethyleneimine) using a Tomtec®Harvester (Tomtec, Hamden, CT), washed 9 times with 500 μL of cold 50 mM Tris-HCl (pH 7.4, 4° C), and then plates were air-dried in a fumehood for 30 min. A bottom seal was applied to the plates prior to the addition of 25 μL of MicroScint-0™ to each well. Plates were than sealed with TopSeal-A™ and counted for 30 sec per well on a TopCount® Microplate Scintillation and Luminescence Counter (PerkinElmer, Wellesley, MA) using a count delay of 60 sec. Results were expressed as counts per minute (cpm). […]

Row | Structure (SMILES) | Ki [1] | Ki [2]
1 | CC(C)[C@H]1NC(=O)[C@@H](Cc2cccc(F)c2)NCCOc2ccccc2C[C@H](O)CNC(=O)[C@H](CC2CC2)NC1=O [compound 218] | 0.1 to 1 µM | 
2 | CC1CNC(C2CC2)C(=O)N(C)C(C)C(=O)NC(Cc2ccc(F)cc2)C(=O)NCCCc2ccccc2O1 (stereo not drawn) [compound 244] |  | 0.001 to 0.1 µM
3 | CCC(C)C1NCCOc2ccccc2CC(C)CNC(=O)C(Cc2cccc(Cl)c2)NC(=O)C2(CCCC2)NC1=O (stereo not drawn) [compound 257] |  | 0.001 to 0.1 µM
4 | CC(C)[C@H]1NC(=O)[C@@H](Cc2cccc(F)c2)NC[C@@H](C)Oc2ccccc2CCCNC(=O)[C@H](CC2CC2)NC1=O [compound 220] | 0.1 to 1 µM | 
5 | CCC[C@@H]1NC(=O)[C@@H](C(C)C)NC(=O)[C@@H](Cc2ccc(O)cc2)NC[C@H](C)Oc2ccccc2CCCNC1=O [compound 226] | 0.1 to 1 µM | 
6 | CCC[C@@H]1NC(=O)[C@@H](C(C)C)NC(=O)[C@@H](Cc2ccc(O)cc2)NC[C@@H](C)Oc2ccccc2CCCNC1=O [compound 227] | 0.1 to 1 µM | 
7 | CCC(C)C1NCC(C)Oc2ccccc2CCCNC(=O)C(Cc2cccc(Cl)c2)NC(=O)C2(CCCC2)NC1=O (stereo not drawn) [compound 254] |  | 0.001 to 0.1 µM
8 | CC(C)[C@H]1NC(=O)[C@@H](Cc2cccc(F)c2)N[C@H](C)COc2ccccc2CCCNC(=O)[C@H](CC2CC2)NC1=O [compound 217] | 0.1 to 1 µM | 
9 | CCC(C)C1NCCOc2ccccc2C(C)CCNC(=O)C(Cc2cccc(Cl)c2)NC(=O)C2(CCCC2)NC1=O (stereo not drawn) [compound 256] |  | 0.1 to 1 µM
10 | CC1COc2ccccc2CCCNC(=O)C(Cc2ccc(F)cc2)NC(=O)C(C)N(C)C(=O)C(C2CC2)N1 (stereo not drawn) [compound 241] |  | 0.001 to 0.1 µM
11 | CC(C)[C@H]1NC(=O)[C@@H](Cc2cccc(F)c2)NCCOc2ccccc2C[C@@H](C)CNC(=O)[C@H](CN(C)C)NC1=O [compound 205] | 0.1 to 1 µM | 
12 | CCC(C)[C@@H]1NC[C@H](C)Oc2ccccc2CCCNC(=O)[C@@H](Cc2ccccc2)NC(=O)[C@@H](C)N(C)C1=O (stereo partly drawn) [compound 243] |  | 0.001 to 0.1 µM
13 | CC1COc2ccccc2CCCNC(=O)[C@H](CC2CC2)NC(=O)[C@@H](C(C)C)NC(=O)[C@@H](Cc2cccc(Cl)c2)N1 (stereo partly drawn) [compound 223] | 0.001 to 0.1 µM | 
14 | CC1CNC(=O)C(Cc2ccc(F)cc2)NC(=O)C(C)N(C)C(=O)C(C2CC2)NCCOc2ccccc2C1 (stereo not drawn) [compound 248] |  | 0.1 to 1 µM
15 | CC(C)[C@H]1NC(=O)[C@@H](Cc2cccc(Cl)c2)N[C@@H](C)COc2ccccc2CCCNC(=O)[C@H](CNC(=N)N)NC1=O [compound 203] | 0.001 to 0.1 µM | 
16 | CC(C)[C@H]1NC(=O)[C@@H](Cc2cccc(Cl)c2)NCCOc2ccccc2C[C@@H](C)CNC(=O)[C@H](CC2CC2)NC1=O [compound 211] | 0.001 to 0.1 µM | 
17 | CC(C)[C@H]1NC(=O)[C@@H](Cc2cccc(F)c2)NCCOc2ccccc2C[C@@H](O)CNC(=O)[C@H](CC2CC2)NC1=O [compound 219] | 0.1 to 1 µM | 
18 | CCC(C)[C@@H]1NC[C@@H](C)Oc2ccccc2CCCNC(=O)[C@@H](Cc2ccccc2)NC(=O)[C@@H](C)N(C)C1=O (stereo partly drawn) [compound 242] |  | 0.001 to 0.1 µM

Now from value to molecule:

Row | Ki [1] | Ki [2] | Structure (SMILES)
19 | 0.001 to 0.1 µM |  | CC1CNC(=O)[C@H](CC2CC2)NC(=O)[C@@H](C(C)C)NC(=O)[C@@H](Cc2cccc(Cl)c2)NCCOc2ccccc2C1 (stereo partly drawn) [compound 209]
20 | 0.001 to 0.1 µM |  | CC(C)[C@H]1NC(=O)[C@@H](Cc2cccc(Cl)c2)NCCOc2ccccc2C[C@H](O)CNC(=O)[C@H](CC2CC2)NC1=O [compound 215]
21 | 0.001 to 0.1 µM |  | CC(C)[C@H]1NC(=O)[C@@H](Cc2cccc(F)c2)NCCOc2ccccc2C[C@@H](C)CNC(=O)[C@H](CC2CC2)NC1=O [compound 214]
22 | 0.001 to 0.1 µM |  | CC(C)[C@H]1NC(=O)[C@@H](Cc2cccc(C(F)(F)F)c2)NCCOc2ccccc2C[C@@H](C)CNC(=O)[C@H](CNC(=N)N)NC1=O [compound 204]
23 | 0.001 to 0.1 µM |  | CCC[C@@H]1NC(=O)[C@@H](C(C)C)NC(=O)[C@@H](Cc2ccc(OC)cc2)NC(C)COc2ccccc2CCCNC1=O (stereo partly drawn) [compound 222]
24 | 0.001 to 0.1 µM |  | CC(C)[C@H]1NC(=O)[C@@H](Cc2cccc(C(F)(F)F)c2)NCCOc2ccccc2C[C@H](C)CNC(=O)[C@H](CNC(=N)N)NC1=O [compound 201]
25 | 0.001 to 0.1 µM |  | CC(C)[C@H]1NC(=O)[C@@H](Cc2cccc(F)c2)N[C@@H](C)COc2ccccc2CCCNC(=O)[C@H](CC2CC2)NC1=O [compound 208]
26 | 0.001 to 0.1 µM |  | CC(C)[C@H]1NC(=O)[C@@H](Cc2cccc(Cl)c2)NCCOc2ccccc2C[C@H](C)CNC(=O)[C@H](CC2CC2)NC1=O [compound 207]
27 | 0.001 to 0.1 µM |  | CC(C)[C@H]1NC(=O)[C@@H](Cc2cccc(Cl)c2)NCCOc2ccccc2C[C@@H](O)CNC(=O)[C@H](CC2CC2)NC1=O [compound 216]
